Data on ten compounds can be found in ChEMBL document CHEMBL1201862, “PubChem BioAssay data set” (2004).

Structures are written as SMILES.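 Grown in 96-well plates, cells were treated for 48 hours with each compound at five concentrations. Insufficient inhibition: endpoint recorded as highest concentration tested. GI50: concentration for 50% inhibition of growth.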 The source made the active and inactive calls. Cut-off read from the data, not from the text of the source: active = GI50 up to about 1.1 µM and inactive = higher.

Holding throughout (assay): growth of human tumour cells (NCI), 48 h
Experiment [1] deals with 786-0.
Experiment [2] concerns HL-60.
Experiment [3] has as its system SR.
Experiment [4] deals with MDA-MB-435.
Experiment [5] concerns CAKI-1.
For experiment [6], the system named is LOX IMVI.
The subject of experiment [7] is U-251.
Experiment [8] concerns HCC 2998.
Experiment [9] has as its system TK-10.
The test system of experiment [10] is NCI-H226.
The subject of experiment [11] is OVCAR-8.
Experiment [12] relates to SF-268.
Experiment [13] has as its system CCRF-CEM.
For experiment [14], the system named is SN12C.
In experiment [15] the test system is NCI-H23.
Experiment [16] has as its system COLO 205.
The subject of experiment [17] is OVCAR-5.
Experiment [18] relates to SF-295.
Experiment [19] relates to SW-620.
Experiment [20] deals with SK-MEL-28.

Regarding `O=C1C=C(NCCc2cc(Br)c(O)c(Br)c2)C(=O)c2[nH]cnc21`, the GI50 was > 100 µM (inactive) in experiment [1]; > 10 µM (inactive) in [2]; 32.4 µM (inactive) in [3]; 15.6 µM (inactive) in experiment [4]; 39.9 µM (inactive) in experiment [5]; 21.5 µM (inactive) in experiment [6]. Also, the GI50 is 38.3 µM (inactive) in [7]; 11.5 µM (inactive) in [8]; 89.7 µM (inactive) in experiment [9]; 23 µM (inactive) in experiment [10]; 38.7 µM (inactive) in experiment [11]; 49 µM (inactive) in [12]. Besides, the GI50 in [13] was 2.28 µM (inactive); in experiment [14], 26.2 µM (inactive); in experiment [15], 10.8 µM (inactive); in [16] it was 24.7 µM (inactive); in experiment [17], 29.9 µM (inactive); in experiment [18], 30.5 µM (inactive). Further, the GI50 in [19] is 21.6 µM (inactive); in experiment [20] it was 39.7 µM (inactive).

Turning to `COC(=O)/C=C1\C(=O)C=C2[C@@H]3C[C@H]4C[C@H](CC[C@@]4(C)N21)C3(C)NC(C)=O` (stereo not given in full), the GI50 in [1] was 3.51 µM (inactive); in experiment [2], 5.55 µM (inactive); in [3], 18.8 µM (inactive); in [4] it was 9.02 µM (inactive); in experiment [5] it was 5.64 µM (inactive); in experiment [6], 17 µM (inactive). The GI50 in experiment [7] was 17 µM (inactive); in [8] it was 26.9 µM (inactive); in [9], 15.7 µM (inactive); in [10] it was 25.5 µM (inactive); in [11] it was 16.6 µM (inactive); in experiment [12], 6.68 µM (inactive). In addition, the GI50 in experiment [13] is 4.4 µM (inactive); in experiment [14], 11.7 µM (inactive); in experiment [15] it was 23.7 µM (inactive); in [16] it was 5.9 µM (inactive); in [17], 18.1 µM (inactive); in experiment [18], 19.5 µM (inactive). Further, the GI50 in experiment [19] is 2.8 µM (inactive); in experiment [20], 3.12 µM (inactive).

As to `CC1=C(C(=O)OC2CC3CCC2(C)C3(C)C)C2Nc3ccccc3N(C)C2O1` (stereo not given), the GI50 in experiment [1] was 2.51 µM (inactive); in [2], 2.1 µM (inactive); in experiment [3], 1.19 µM (inactive); in experiment [4], 1.54 µM (inactive); in experiment [5], 2.95 µM (inactive); in experiment [6] it was 1.71 µM (inactive). Besides, the GI50 was 3.58 µM (inactive) in experiment [7]; 1.66 µM (inactive) in experiment [8]; 4.07 µM (inactive) in experiment [9]; 4.3 µM (inactive) in experiment [10]; 2.37 µM (inactive) in experiment [11]; 4.8 µM (inactive) in [12]. The GI50 in experiment [13] is 2.04 µM (inactive); in experiment [14], 1.78 µM (inactive); in experiment [15], 2.39 µM (inactive); in [16], 0.918 µM (active); in experiment [17], 7.1 µM (inactive); in [18] it was 1.72 µM (inactive). The GI50 is 2.14 µM (inactive) in [19] and 5.02 µM (inactive) in experiment [20].

Consider `CC(C)OP(=O)(OC(C)C)/C(C#N)=C/c1c[nH]c2ccccc12`, for which the GI50 is > 100 µM (inactive) in experiment [1]; 19.1 µM (inactive) in experiment [2]; 68.1 µM (inactive) in experiment [3]; 65.5 µM (inactive) in experiment [4]; > 100 µM (inactive) in experiment [5]; > 100 µM (inactive) in [6]. Moreover, the GI50 in experiment [7] was > 100 µM (inactive); in experiment [8], > 100 µM (inactive); in experiment [9], > 100 µM (inactive); in [10], 94 µM (inactive); in [11], 54.6 µM (inactive); in experiment [12], > 100 µM (inactive). Also, the GI50 was 35.6 µM (inactive) in [13]; > 100 µM (inactive) in experiment [14]; 46.2 µM (inactive) in experiment [15]; 88.9 µM (inactive) in experiment [16]; > 100 µM (inactive) in experiment [17]; 38.9 µM (inactive) in experiment [18]. Also, the GI50 in experiment [19] and in experiment [20] was > 100 µM (inactive) each time.

As for `CCOC(=O)NC(Nc1ccc(S(=O)(=O)Nc2ccc(OC)nn2)cc1)(C(F)(F)F)C(F)(F)F`, the GI50 in [1] was 20.9 µM (inactive); in experiment [2], 26.7 µM (inactive); in experiment [3], 24.7 µM (inactive); in [4], 14.5 µM (inactive); in experiment [5], > 100 µM (inactive); in [6], 29.5 µM (inactive). The GI50 in [7] is 17.9 µM (inactive); in experiment [8], > 100 µM (inactive); in experiment [9], 27.7 µM (inactive); in [10], 23 µM (inactive); in [11], 38.2 µM (inactive); in experiment [12] it was 36.1 µM (inactive). For the same compound, the GI50 in experiment [13] was 26.5 µM (inactive); in experiment [14], 25.4 µM (inactive); in experiment [15] it was 31.3 µM (inactive); in [16], 21.9 µM (inactive); in experiment [17], 32.2 µM (inactive); in experiment [18] it was 37 µM (inactive). The GI50 in experiment [19] is 44.1 µM (inactive); in [20] it was 24.9 µM (inactive).

On to `C=C(Cl)c1c(OC)cccc1OCc1ccccc1`, for which the GI50 in experiment [1] is > 100 µM (inactive); in experiment [2] it was 29.2 µM (inactive); in experiment [3], 26.8 µM (inactive); in experiment [4], 37 µM (inactive); in experiment [5], > 100 µM (inactive); in experiment [6], 69.7 µM (inactive). Further, the GI50 is > 100 µM (inactive) in experiment [7]; 37.4 µM (inactive) in experiment [8]; > 100 µM (inactive) in experiment [9]; 48.2 µM (inactive) in [10]; > 100 µM (inactive) in [11]; > 100 µM (inactive) in [12]. Also, the GI50 in experiment [13] is 75 µM (inactive); in experiment [14] it was > 100 µM (inactive); in experiment [15], 26.1 µM (inactive); in [16], 98.2 µM (inactive); in experiment [17] it was > 100 µM (inactive); in experiment [18] it was > 100 µM (inactive). For the same compound, the GI50 is 71 µM (inactive) in [19] and > 100 µM (inactive) in experiment [20].

For the compound `COc1ccc(/C=C2\CCS(=O)(=O)c3ccccc3C2=O)cc1`, the GI50 in experiment [1] is 18.3 µM (inactive); in experiment [2], 21.5 µM (inactive); in [3], 8.55 µM (inactive); in experiment [4], 26.9 µM (inactive); in [5], 26.5 µM (inactive); in experiment [6], 20.4 µM (inactive). The GI50 in [7] was 17.8 µM (inactive); in experiment [8], 20 µM (inactive); in [9], 23.2 µM (inactive); in experiment [10] it was 20.2 µM (inactive); in experiment [11], 22.2 µM (inactive); in experiment [12], 30.3 µM (inactive). Further, the GI50 in experiment [13] is 20 µM (inactive); in experiment [14], 28.3 µM (inactive); in experiment [15] it was 25.7 µM (inactive); in experiment [16], 15.2 µM (inactive); in experiment [17] it was 26.7 µM (inactive); in [18] it was 35 µM (inactive). The GI50 in experiment [19] is 20.9 µM (inactive); in experiment [20], 26.9 µM (inactive).

Consider `O=C(O)Cc1ccc(Oc2nc3ccccc3nc2-c2cccs2)cc1`, for which the GI50 was 80 µM (inactive) in experiment [1]; 55.8 µM (inactive) in experiment [2]; 38.8 µM (inactive) in [3]; 92 µM (inactive) in [4]; 55.7 µM (inactive) in [5]; 40.6 µM (inactive) in [6]. In addition, the GI50 in experiment [7] was 30.5 µM (inactive); in experiment [8] it was 57.4 µM (inactive); in [9] it was 95.1 µM (inactive); in experiment [10], 52.4 µM (inactive); in experiment [11], 71.9 µM (inactive); in [12] it was 66.4 µM (inactive). Also, the GI50 in experiment [13] was 49.3 µM (inactive); in experiment [14], 84.9 µM (inactive); in [15], 55.8 µM (inactive); in experiment [16] it was 31 µM (inactive); in experiment [17] it was 62.7 µM (inactive); in [18], 42.6 µM (inactive). Further, the GI50 in experiment [19] is > 100 µM (inactive); in experiment [20], 60.4 µM (inactive).

In the case of `Nc1ccc(S(=O)(=O)Nc2cnc3c(Cl)cccc3n2)cc1` [CHLORSULFAQUINOXALINE], the GI50 in experiment [1] is 86.3 µM (inactive); in experiment [2], 167 µM (inactive); in experiment [3], 56.4 µM (inactive); in experiment [4], > 70 µM (inactive); in experiment [5], 56.2 µM (inactive); in experiment [6], 84.9 µM (inactive). For the same compound, the GI50 in experiment [7] was 207 µM (inactive); in experiment [8], 99.5 µM (inactive); in experiment [9], 41.6 µM (inactive); in experiment [10] it was 163 µM (inactive); in experiment [11] it was 144 µM (inactive); in experiment [12], 197 µM (inactive). The GI50 is 52.6 µM (inactive) in experiment [13]; 94.4 µM (inactive) in experiment [14]; 163 µM (inactive) in experiment [15]; 23.9 µM (inactive) in experiment [16]; 192 µM (inactive) in experiment [17]; 31.4 µM (inactive) in [18]. Besides, the GI50 in [19] is 26.1 µM (inactive); in [20] it was 151 µM (inactive).

For the compound `O=C(N/N=C\c1ccccc1)Nc1cccc2ccccc12`, the GI50 was 16.4 µM (inactive) in experiment [1]; > 100 µM (inactive) in experiment [2]; > 100 µM (inactive) in experiment [3]; 29.9 µM (inactive) in experiment [4]; 35.7 µM (inactive) in experiment [5]; 44.2 µM (inactive) in experiment [6]. Besides, the GI50 in [7] was 30.3 µM (inactive); in experiment [8], 80.2 µM (inactive); in experiment [9] it was 42.9 µM (inactive); in experiment [10], 27.1 µM (inactive); in experiment [11] it was 27.9 µM (inactive); in [12], 57 µM (inactive). The GI50 was > 100 µM (inactive) in experiment [13]; 20.3 µM (inactive) in experiment [14]; > 100 µM (inactive) in experiment [15]; 48.3 µM (inactive) in experiment [16]; 60.4 µM (inactive) in [17]; 32.1 µM (inactive) in experiment [18]. The GI50 in experiment [19] was 33.8 µM (inactive); in experiment [20] it was 21.7 µM (inactive).
